Laboratory results from patent US10869903B2, “Probiotic and prebiotic compositions, and methods of use thereof for treatment and prevention of graft versus host disease” (Evelo Biosciences, Inc., priority 2014, dated 2020).

What was measured:
tumors = details: oral administration; anti-PD-1 and anti-CTLA-4 antibody therapies; cited from earlier work
[1] = tested on: human peripheral blood mononuclear cells (PBMCs); assay: Cytokine release by human PBMCs incubated with commensal bacteria, alone or combined with E. faecalis (Luminex); format: cell-based; details: for anti-inflammatory profile for a Th-1-driven condition such as GVHD: overall assessment
Description: An in vitro system was developed to efficiently test the inflammatory and immunomodulatory properties of different human commensal bacteria on human peripheral blood mononuclear cells (PBMCs). Experiments were carried out with 21 bacterial candidates to profile their anti-inflammatory properties against human PBMCs. The innate properties of bacteria alone on human PBMCs were tested as well as their ability to counteract the pro-inflammatory activity of Enterococcus feacalis.
Human PBMCs were isolated from fresh blood by density-gradient centrifugation using Ficoll (1-4). […] The results are presented in FIGS. 2-5 for all time points. […] The 24 h results are shown as a composite in FIG. 6 and with statistical analysis on individual cytokines in FIGS. 7-10. The results represent the properties of each bacterial species against human PBMCs and their ability to counteract inflammatory stimulation with E. faecalis in vitro.

[2] = tested on: microbiome of the gut and the vagina; design: species or system C57Bl/6 female mice; details: mouse, in vivo
Source text: The trillions of organisms forming the microbiome function as an organ system interconnected throughout the body. The possibility that modification of the microbiome in a given physical location may influence the microbiome at other sites in the body (distal augmentation) was investigated. Seven week old C57Bl/6 female mice were acclimatized for 7 days prior to the start of the study by daily handling and shuffling between cages. All mice were housed at three mice per cage in individually vented cages (Thoren, Hazleton, Pa.). At day 0, baseline fresh fecal pellets, and vaginal lavages with 100 μL of sterile double-distilled water were collected and immediately frozen at −80° C. for microbiome analysis. […] Water alone is not expected to influence the microbiome and acted as a negative control. […] The impact of oral vancomycin is therefore expected to be limited to the gastrointestinal tract such that microbiome changes elsewhere in the body (e.g. vagina) would be attributable to distal augmentation. […]
Isolation and sequencing of microbial DNA from the stool and vaginal samples was performed by DNA Genotek (Ottawa, ON, Canada). The V3-V4 region of the 16S ribosomal subunit was amplified with custom PCR primers and sequenced on an Illumina MiSeq to a minimum acceptable read depth of 25,000 sequences per sample. […]

[3] = tested on: Tregs in the large intestine; details: mouse, in vivo; cited from earlier work
blautia = assay: Sugar fermentation in media lacking glucose (pH and optical density); format: cell-based
Lactobacillus johnsonii = format: cell-based
[4] = Normal human volunteer study of D-xylose: CRP, serum cytokines, T-cell markers; format: in vivo, healthy, adult volunteers
Source text: Blood was collected at pre-specified pre- and post-ingestion time points to evaluate C-reactive protein (CRP), serum cytokines (tumor necrosis factor alpha [TNF-α], interleukin [IL]-2, IL-6, interferon gamma [IFN-γ], and IL-10), and T-cell markers CD3, CD4, CD8, CD25, and FOXP3. Plasma was also stored and may be tested for biomarkers and/or metabolic markers for up to 7 years.
Summary statistics (n, mean, standard deviation, median, minimum, and maximum) were presented for serum concentrations of CRP, flow cytometry T-cell markers (CD3, CD4, CD8, CD25, and FOXP3), and cytokines (TNF-α, IL-2, IL-6, IFN-γ, and IL-10) as per their nominal time points.

[5] = tested on: anaerobic commensal bacteria; assay: Carbon source usage profiling on Biolog PM01 and PM02A plates (OD 750 nm); format: cell-based
GVHD = tested on: GVHD; design: species or system mice; details: mouse, in vivo
[6] = human, in vivo
Description: D-xylose is a carbon source generally preferred by anaerobic bacteria. […] A parallel, double-blind, 5 cohort escalation food safety study was conducted to examine D-xylose in normal human volunteers. The study was a double-blind, single-center, parallel group study designed to evaluate the tolerability and potential microbiome changes induced by ingestion of D-xylose at 5 different amounts in healthy, adult volunteers enrolled at 1 study center in the United States (US).
Subjects were screened for eligibility within 21 days prior to the first planned ingestion of study sweetener on Day 1 (Baseline). […]
Subjects returned to the study center weekly on Days 8, 15, 22, and 28 for ingestion, tolerability, and compliance evaluations. Safety was evaluated on a continual basis through adverse events (AE) monitoring, clinical laboratory measurements, vital sign monitoring, physical examinations, electrocardiograms (ECGs), telephone follow-up, and electronic subject ingestion diaries. Stool was collected pre-ingestion and at pre-specified time points, and post-ingestion samples were evaluated for changes in the gut microbiome compared with Baseline for all subjects. […]
Safety was evaluated on a continual basis through AE monitoring, clinical laboratory measurements, vital sign monitoring, physical examinations, ECGs, telephone follow-up, and electronic subject ingestion diaries. […]

[7] = Normal human volunteer study of D-xylose: serum and urine pharmacokinetics; format: in vivo, healthy, adult volunteers
Source text: Blood and urine were collected at pre-specified pre- and post-ingestion time points to measure D-xylose levels and to characterize the systemic absorption profiles of D-xylose. Phoenix® WinNonLin®, Version 6.2.1, was used for PK analyses. Serum D-xylose concentrations were summarized by cohort using nominal sample times according to actual amount received using summary statistics (n, coefficient of variation [CV], mean, standard deviation [SD], median, minimum, and maximum). Evidence for the occurrence of steady-state was assessed graphically by comparing the time course of either trough or 2-hour post-ingestion serum concentrations of D-xylose as different levels of D-xylose. Accumulation was assessed by comparing the 2-hour post-first-ingestion serum levels with those observed at Week 2 (Day 15) and Week 4 (Day 28). […] Urine PK parameters for D-xylose levels included Ae(0-t) (cumulative amount of sweetener recovered in urine) and percent sweetener amount excreted over a 5-hour period.

Q: Which “responsiveness to checkpoint inhibitor therapy in cancer” value (tumors) does the source give for Bacteroides here?
A: increases the responsiveness

Q: What does the source list for B. luti [EPV3]?
A: intrinsic inflammatory activity (induction of pro-inflammatory cytokines) compared to EPV 8 ([1]; bacterium alone, 24 h): relatively low intrinsic inflammatory activity; reduction of induction of pro-inflammatory cytokines by EPV 8, including IL-6, MCP-1, IL-12p70, IFNγ ([1]; combination with EPV 8, 24 h): able to reduce; anti-inflammatory profile for a Th-1-driven condition such as GVHD [1]: significantly desirable anti-inflammatory profile

Q: For `CN[C@H](CC(C)C)C(=O)N[C@H]1C(=O)N[C@@H](CC(N)=O)C(=O)N[C@H]2C(=O)N[C@H]3C(=O)N[C@H](C(=O)N[C@H](C(=O)O)c4cc(O)cc(O)c4-c4cc3ccc4O)[C@H](O)c3ccc(c(Cl)c3)Oc3cc2cc(c3O[C@@H]2O[C@H](CO)[C@@H](O)[C@H](O)[C@H]2O[C@H]2C[C@](C)(N)[C@H](O)[C@H](C)O2)Oc2ccc(cc2Cl)[C@H]1O` [vancomycin], which “impact on the microbiome of the gut (PCA at family level, fecal samples)” value [2] is on record?
A: strong impact on the microbiome of the gut

Q: And the “day 0 to day 6 pattern in vaginal samples (PCA)” value ([2]; po)?
A: showed an overall difference

Q: With `CC(=O)O` [acetate] as the molecule, how does the “numbers of Tregs in the large intestine” value [3] read?
A: restored normal numbers of Tregs

Q: Which “serum endotoxin levels after antibiotic” value (serum endotoxin; 0.25 g/L in drinking water day −7 to day −2, measured 2 days after a 5 day course (day 0)) does the source give for `CCN1CCN(c2cc3c(cc2F)c(=O)c(C(=O)O)cn3C2CC2)CC1` [enro, enrofloxacin, reference compound] here?
A: led to an increase in serum endotoxin levels

Q: For `C[C@H](O)[C@H](O)[C@@H](O)[C@@H](O)C=O` [rhamnose], which “augmentation (fermentation) of blautia” value (blautia) is on record?
A: specifically augments blautia

Q: And the “augmentation (fermentation) of lactobacillus” value (Lactobacillus johnsonii)?
A: not lactobacillus

Q: With `CCC(=O)O` [propionate] as the molecule, how does the “numbers of Tregs in the large intestine” value [3] read?
A: restored normal numbers of Tregs

Q: Which “responsiveness to checkpoint inhibitor therapy in cancer” value (tumors) does the source give for Bifidobacterium here?
A: increases the responsiveness

Q: For `O=C[C@H](O)[C@@H](O)[C@H](O)CO` [D-xylose], which “levels of serum interferon gamma over time” value ([4]; 2 g and 15 g D-xylose cohorts) is on record?
A: trend for reduced levels

Q: What about the “subjects with normal serum CRP at Baseline and at least 1 post-ingestion CRP value >2.9 mg/L” value ([4]; all cohorts of the sweetener) of the same molecule?
A: 8.3%

Q: And the “use as a carbon source by bacterial strains” value [5]?
A: used as a carbon source by several bacterial strains

Q: What about the “Blautia level in the intestinal flora” value (GVHD) of the same molecule?
A: expansion of Blautia in the intestinal flora

Q: And the GVHD related survival (GVHD)?
A: improved survival

Q: What about the “SAEs, severe AEs, subject deaths” value [6] of the same molecule?
A: No SAEs, severe AEs, or subject deaths

Q: And the tolerability [6]?
A: well tolerated

Q: What about the “ingested amount recovered in urine within 5 hours post-ingestion” value ([7]; 1 g TID cohort, Days 1, 15 and 28) of the same molecule?
A: approximately 40%

Q: What about the “serum D-xylose concentrations versus ingestion amount” value ([7]; 1 to 15 g TID) of the same molecule?
A: increased linearly with increasing ingestion amounts

Q: And the “accumulation ratio of serum D-xylose” value ([7]; Day 15, 15 mg TID cohort, variability high)?
A: approximately 1.9 fold

Q: What about the “accumulation ratio of serum D-xylose” value ([7]; Day 28, 15 g TID) of the same molecule?
A: 1.68

Q: What about the “augmentation (fermentation) of blautia” value (blautia) of the same molecule?
A: specifically augments blautia

Q: And the “augmentation (fermentation) of lactobacillus” value (Lactobacillus johnsonii)?
A: not lactobacillus

Q: And the “basal levels of serum endotoxin” value (serum endotoxin; mouse, in vivo)?
A: reduced these basal levels over time

Q: And the “effect on increase in serum endotoxin level caused by cipro” value (serum endotoxin; mouse, in vivo)?
A: appeared to counteract the increase

Q: And the “effect on increase in serum endotoxin level caused by enro” value (serum endotoxin; mouse, in vivo)?
A: but not enro

Q: For B. wexlerae [EPV5], which “anti-inflammatory profile for a Th-1-driven condition such as GVHD” value [1] is on record?
A: suboptimal anti-inflammatory profile

Q: For Lactobacillus, which “responsiveness to checkpoint inhibitor therapy in cancer” value (tumors) is on record?
A: not
